EC50 data for three molecules are collected here from ChEMBL document CHEMBL2331282, “9-[2-(R)-(Phosphonomethoxy)propyl]-2,6-diaminopurine (R)-PMPDAP and its prodrugs: optimized preparation, including identification of by-products formed, and antiviral evaluation in vitro” (Bioorg Med Chem, 2013).

This test deals with Vaccinia virus. Kind of test: Antiviral activity against Vaccinia virus infected in human HEL cells assessed as reduction of virus-induced cytopathogenicity. The class given is functional, organism-based. As to conditions: Orthopoxvirus vaccinia. In general terms: Cytopathic effects are the visible damage that an infection or toxin causes in cultured cells.
Usually EC50 stands for the concentration giving half of the maximal effect. In the case of `C[C@@H](O)CNc1nc(N)nc2c1ncn2C[C@@H](C)O`, the EC50 is above 100 µg/mL.
To `C[C@H](Cn1cnc2c(NCP(=O)(O)O)nc(N)nc21)OCP(=O)(O)O` belongs above 100 µg/mL; to `C[C@@H](O)CNc1nc(N)c2ncn(C[C@@H](C)O)c2n1`, above 100 µg/mL.
